Measured values taken from article PMC2832019, “In Vitro Metabolic and Mitogenic Signaling of Insulin Glargine and Its Metabolites” (PLoS ONE, 2010).

How the values were obtained:
[1] = test system: primary rat adipocytes; assay: Metabolic activity: insulin-stimulated lipid synthesis in primary rat adipocytes; assay type: cell-based, rat (Sprague-Dawley); details: for lipid synthesis EC50 higher relative to human insulin: fold higher EC50 relative to insulin; for EC50: incorporation of [3-^3H]glucose into toluene-extractable lipids, 90 min at 37°C, pH 7.4, means ± SEM, five different adipocyte preparations, read-out: Metabolic potency EC50; for metabolic activity, EC50 lower than M1: relative to M1
Protocol: The metabolic activity of the different insulins was compared using insulin-stimulated lipid synthesis in primary rat adipocytes. Primary rat adipocytes were prepared according to published procedures, [33]. Briefly, rats (Sprague-Dawley, male, 140–160 g, fed ad libitum) were provided from Charles-River (Sulzfeld, Germany) and killed by cervical dislocation in accordance with the German animal protection law. The animals were used for the preparation of primary adipocytes, exclusively, and were not subjected to any pretreatment, such as drug administration or starvation. Epididymal fat pads were rapidly removed, stripped of blood vessels and placed in PBS. Subsequently, the pads were washed with KRBB bubbled with 5% O2/95% CO2. Each pad was then cut into two or three pieces. Two pieces of each were incubated with 1.5 mL of digestion buffer (10 mg collagenase [Worthington Inc., CLS, type I, 190 units/mg] in 10 ml of KRBB containing 9 mg glucose) for 15–30 min at 37°C in a shaking water bath (240 cycles/min). Released adipocytes were separated from residual undigested tissue by passage through a nylon web (mesh size 150 µm) and washed by flotation in a plastic tube two or three times with KRBB and adjusted to the appropriate titer of 3.5×10^5 cells/mL. For distribution of the adipocytes, 200 µL of the suspension was removed under continuous gentle stirring with a plastic agitator.
Lipid synthesis was measured as the incorporation of [3-^3H]glucose into toluene-extractable lipids, at a final cell titer of […] in KRBB (1.2 mM KH2PO4, 1.2 mM MgSO4, 4.8 mM KCl, 25 mM NaHCO3, 120 mM NaCl, 2.4 mM CaCl2, containing 1% BSA [defatted, fraction V, Sigma, Deisenhofen, Germany] and 37 µM glucose and adjusted to pH 7.4) according to published procedures (Müller et al., 2008) with the following modifications: 680 µL of KRBB were filled into 10-mL scintillation vials and supplemented with 100 µL of D-[3-^3H]glucose (2 µCi/mL KRBB, 1 mM, Amersham-Buchler, Braunschweig, Germany) and 20 µL of insulin solution in KRBB. Lipid synthesis was started by the addition of 200 µL of adipocyte suspension in KRBB. After incubation for 90 min at 37°C under an atmosphere of 5% O2/95% CO2 and gentle shaking, 10 mL of toluene-based scintillation cocktail (Quickszint 501, Zinsser, Germany) was added. The samples were vigorously mixed and after phase separation (2 to 4 h) measured for radioactivity by liquid scintillation counting. Determination of the radioactivity contained in the toluene phase and corrected for non-specific spill-over of the radioactivity of unincorporated radiolabelled glucose contained in the water phase predominantly reflects the de novo lipid synthesis.
(§1) For each experiment, IC50 or EC50 values were obtained using the 4-parameter logistic model according to Ratkowsky and Reedy (1986). The adjustment was obtained by non-linear regression using the Levenberg-Marquardt algorithm in SAS v9.1.3 software via Biost@t-Speed V2.0-LTS internal application. If necessary, lower and upper asymptotes were set to 0 and 100, respectively.
Figure 3 Metabolic activity of insulin glargine and its metabolites in rat adipocytes. To compare the metabolic activity of glargine and its metabolites insulin-stimulated lipid synthesis in isolated primary rat adipocytes was analyzed by incorporation of [3-^3H]glucose into toluene-extractable lipids and subsequent measurement of radioactivity by liquid scintillation counting. The adipocytes were treated with increasing concentrations of insulin, analogs, metabolites or IGF-1 for 90 min at 37°C in the presence of [3-^3H]glucose. Each point represents the mean ± SEM of five different adipocyte preparations with activity measurements done in duplicate.

[2] = test system: Saos-2 cells; assay: Mitogenic potency: thymidine incorporation in Saos-2 cells; assay type: cell-based, human; details: for EC50: [2-^14C]-thymidine incorporation, 19 h stimulation plus 6 h thymidine, serum-free, 37°C, octuplicate samples, means ± SEM, at least three times; for mitogenicity in words: relative to glargine and human insulin
Protocol: The human osteosarcoma cell line Saos-2 was obtained in frozen aliquots from the European Collection of Cell Cultures (ECACC, Salesbury, UK). Cells were grown in McCoy's 5a medium (Gibco, Grand Island, NY, USA) supplemented with 10% fetal calf serum (PAN Biotech GmbH, Aidenbach, Germany) and 2 mM (final) L-glutamine (Sigma Aldrich, Irvine, UK). Subconfluent cultures (9-15×10^6 cells per 225 cm^2 flask) were used to determine the mitogenic activity of the test compounds.
For measuring thymidine incorporation 40,000 cells were seeded per well of a 96-well Cytostar-T scintillation microplate (GE Healthcare, Amersham, UK) and the plates were incubated overnight at 37°C in a humidified atmosphere containing 5% CO2. The serum-containing medium was removed and replaced by 200 µL serum-free McCoy's 5a medium supplemented with 0.5% (w/v) BSA (Gibco, Grand Island, NY, USA), 2 mM L-glutamine and antibiotics (penicillin 100 units, streptomycin 100 units, amphotericin B 0.25 µg/mL final, Gibco, Grand Island, NY, USA). The plates were incubated for 4 hours at 37°C in a humidified atmosphere containing 5% CO2. 150 µL of the medium were removed and substituted by 150 µL of serum-free medium containing the different insulins or IGF-1 (Cell Sciences, Canton, MA, USA) at the indicated concentrations and the plates were incubated at 37°C in a humidified atmosphere containing 5% CO2. After 19 hours 10 µL of [2-^14C]-thymidine solution ([…], 3.7 MBq/mL) diluted in serum-free McCoy's 5a medium were added per well to yield a final concentration of 500 nCi/mL and the plates were incubated for 6 hours at 37°C in a humidified atmosphere containing 5% CO2. ^14C-thymidine incorporation was measured in a Wallac 1450 Micro Beta Trilux Scintillation counter. Dose-response curves were obtained by testing ten different concentrations of the ligands with every concentration tested by octuplicate samples.
as §1
Figure 4 Activity of insulin analogs on the human IGF1R and mitogenic potential in Saos-2 cells. Analysis of binding to the human IGF1R using [^125I]IGF-1 as radioactive ligand (A) and analysis of the insulin-stimulated autophosphorylation of the human IGF1R overexpressed in MEF cells (B) were done as described in figure 2 and Materials and Methods. Data are given as means ± SEM. […] Confluent cells were starved for 4 h and then incubated for 19 h with increasing concentrations of IGF-1, insulin or analog in serum free medium. [^14C]thymidine was added for further 6 h and the radioactivity measured in a Wallac Micro Scintillation counter. Data are given as means ± SEM from octuplicate sample.

[3] = test system: insulin receptor; details: cited from earlier work
Source text: Accordingly, a good correlation between the potency in insulin receptor binding, induction of autophosphorylation and stimulation of lipid synthesis has been observed for insulin analogs. […] Taken together ...

[4] = in vivo; cited from earlier work
[5] = relative to human insulin, ref [12]

Substance	lipid synthesis EC50 higher relative to human insulin [1] [fold]	EC50 [1] [nM]	EC50 [2] [nM]	dissociation rate ([3]; relative to human insulin, ref [12], [51])	insulin receptor binding relative to human insulin [3, 5] [%]	affinity towards IR and IGF1R ([3]; IR and IGF1R, relative to human insulin, ref [12])	occupancy time for the IR ([3]; ref [12])	occupancy of receptor ([3]; ref [50])	mitogenicity in words [2]	plasma levels of metabolites [4]	metabolic activity, EC50 lower than M1 [1] [fold]
[Gly^A21,Arg^B31,Arg^B32]insulin [Glargine]	1.4	0.066 ± 0.005	1.61 ± 0.26	dissociation rate similar to that of human insulin	86	–	–	–	–	–	–
[Asp^B10]insulin	–	0.031 ± 0.005	1.52 ± 0.15	–	–	higher affinity towards both IR and IGF1R	prolonged occupancy time	prolonged occupancy	–	–	–
[Gly^A21]insulin [Glargine M1]	3.0	0.139 ± 0.009	16.2 ± 2.35	–	78	–	–	–	significantly less mitogenic than glargine and comparable to normal insulin	significant plasma levels	–
Human insulin: human insulin produced by recombinant DNA techniques or enzymatic semisynthesis	–	0.045 ± 0.003	12.2 ± 0.27	–	–	–	–	–	–	–	–
[Gly^A21,des-Thr^B30]insulin [Glargine M2]	–	0.087 ± 0.007	17.9 ± 6.5	–	–	–	–	–	significantly less mitogenic than glargine and comparable to normal insulin	significant plasma levels	0.6
[Gly^A21,Arg^B31]insulin [Glargine IM]	–	0.098 ± 0.012	3.75 ± 0.31	–	–	–	–	–	reduced relative to insulin glargine	minor species only	0.6
IGF-1: IGF-1 obtained from R&D Systems and Cell Sciences	422	19 ± 0.93	0.22 ± 0.05	–	–	–	–	–	–	–	–
